Assay results from a melting point compilation (Tetko et al.; mined from patent text by program, amines drawn as free bases though some values may be those of a salt).

melting point	Compound
169 °C	OCCn1cnc2c(NCCN3CCC(Nc4nc5ccccc5n4Cc4ccc(F)cc4)CC3)ncnc21
123 °C	O=C(NCCc1ccccn1)c1ccccc1-c1ccccc1CNS(=O)(=O)c1cccc(F)c1
140 to 142 °C	Cc1c(SCCCn2c([N+](=O)[O-])cnc2C)ccnc1CSc1ccncc1
125 to 126 °C	CON=C(c1noc(C)n1)c1ccccc1COc1ccc(Cl)cc1
123 to 135 °C	O=C(NCC(=O)N1CCN(C(=O)c2cc(C(F)(F)F)cc(C(F)(F)F)c2)[C@H](Cc2c[nH]c3ccccc23)C1)c1ccccc1
178 to 179 °C	O=[N+]([O-])c1ccc(N2CCCC2)c(S(=O)(=O)O)c1
130 to 132 °C	C=Cc1ccc(S(N)(=O)=O)cc1
91 to 93 °C	N#CC(=NO)c1cccc(Br)c1
112 to 120 °C	O=C(O)CCCN1CCN(C(=O)c2cc(C(F)(F)F)cc(C(F)(F)F)c2)[C@H](Cc2c[nH]c3ccccc23)C1
78 to 81 °C	O=C1OC(CCCCN2CCN(c3ccccn3)CC2)CN1c1ccccc1 (configuration not stated)
180 °C	COc1ccc(CN(C)CCCc2ccc(NC(=O)c3cccc4c(=O)cc(-c5ccccc5)[nH]c34)cc2)cc1OC
74 to 75 °C	COC(=O)c1cccc(OC)c1OCCC#N
285 to 286 °C	Cc1nc2c(c3c1[nH]c1cc(F)ccc13)C(=O)CC(C(C)C)C2 (configuration not stated)
219 to 220 °C	CCn1nccc1NC(=O)c1cc(C(=O)OC)c(O)c2ncc(Cc3ccc(F)cc3)cc12
146 to 148 °C	Oc1ccc(C(O)CNCCCn2cnc3ccccc32)cc1 (configuration not stated)
187 to 190 °C	CC1=C(C(=O)O)C(c2ccccc2Cl)C(c2nnco2)=C(C)N1 (configuration not stated)
184 to 186 °C	CN1C(=O)C2(COc3cc4c(cc32)OCCO4)c2c(NS(C)(=O)=O)cccc21 (configuration not stated)

melting point	Compound
99 °C	CC1C(=O)N(C2CCCC2)C(=S)N1c1ccc(Oc2ccccc2)cc1 (configuration not stated)
219 to 222 °C	CC(=O)Nc1ccccc1CN1CCC(CCC(=O)c2ccc(Nc3ncnc4c3CCC4)cc2)CC1
184 to 185 °C	CS(=O)(=O)C(C#N)=Cc1ccc2[nH]ccc2c1
36 to 38 °C	CCCCCCCCOc1cc(OC)ccc1O
137 to 138 °C	O=C(c1ccc(-n2cncn2)cc1)N1CCC(NCc2ccccc2)CC1
254 to 255 °C	O=C1CCCc2c(-c3ccccc3)[nH]c(-c3ccncc3)c21
110 °C	C=C(C)C(=O)OCCOc1ccc(N=Nc2ccc(C#N)cc2)cc1C#N
56 to 58 °C	CCCCCCCCCCCCCCCCCCOc1cc(OCCCOc2ccc(C(C)(C)C)cc2)cc(N(CC(=O)OC)CC(=O)OC)c1
202 to 204 °C	O=C(O)[C@@H]1C[C@@H](O)CN1CCO
220 to 225 °C	O=C1N(CC2CCCO2)c2cc3c(cc2C12COc1cc4c(cc12)CCO4)OCCO3 (configuration not stated)
212 to 214 °C	Cc1ccc(-c2ccc3c(c2)C=C(C(=O)Nc2ccc(CNc4cccnc4)cc2)CC3)cc1
67 °C	COc1cc(Cc2cc3cc(Cl)ccc3n2S(=O)(=O)c2ccc(C(C)C)cc2)ccc1C(=O)O
212 °C	Cc1ccnc(N2CCN(CCCCC3Sc4cc(O)ccc4NC3=O)CC2)c1 (configuration not stated)
192 °C	O=C(O)c1cc(Oc2c(Cl)cc(Cl)cc2Cl)ccc1[N+](=O)[O-]
222 to 225 °C	Cc1cc(N2CCCC2)cc2c1C(=O)OC2=O
157 to 159 °C	CCOC(=O)c1c(N)c2cccnc2n(CC(C)C)c1=O

Compound	melting point
COC(=O)[C@@H]1C[C@H](N=[N+]=[N-])C(=O)[C@H]2[C@@]1(C)CC[C@H]1C(=O)O[C@H](c3ccoc3)C[C@]21C	200 to 203 °C
CCOP(=O)(OCC)c1ccc(N)cc1	112 to 116 °C
CC(=O)c1cccnc1CN1C(=O)C(NC(=O)Nc2cccc(C)c2)N=C(c2ccccc2F)c2ccccc21 (racemic)	218 to 222 °C
C=CCCN(CCC=C)Cc1noc(-c2ncn3c2[C@@H]2CCN2C(=O)c2c(Cl)cccc2-3)n1	115 to 120 °C
